Measurements reported in article PMC3419191, “Identification of Novel Piperazinylquinoxaline Derivatives as Potent Phosphoinositide 3-Kinase (PI3K) Inhibitors” (PLoS ONE, 2012).

What was measured:
[1] = system: A549; test: MTT assay, antiproliferative activity against A549 cells; format: cell-based; settings: Homo sapiens, 72 h, mean of at least two determinations
Source text: (§1) All synthesized target compounds were firstly tested for their antiproliferative activity against five human cancer cell lines, PC3, A549, HCT116, HL60, and KB, using MTT assay.
(§2) Human prostate cancer PC3 cells, lung adenocarcinoma epithelial A549 cells, colon cancer HCT116 cells, promyelocytic leukemia HL60 cells and nasopharyngeal carcinoma KB cells were obtained from the cell bank of the Institute of Biochemistry and Cell Biology, Chinese Academy of Sciences (Shanghai, China). The inhibitory activity of target compounds against tested cancer cell lines was measured using the MTT assay. PC3, A549, HCT116, HL60, and KB cancer cell lines were cultured in RPMI-1640 medium (Invitrogen, Carlsbad, CA, USA) with heat-inactivated 10% fetal bovine serum, penicillin (100 units/mL) and streptomycin (100 µg/mL) and incubated in an atmosphere with 20% oxygen and 5% carbon dioxide at 37°C. All tested compounds were dissolved in DMSO at concentrations of 10.0 mg/mL and diluted to appropriate concentrations. Cells were plated in 96-well plates for 24 h and subsequently treated with different concentrations of all tested compounds for 72 h. Viable cells were determined using 3-(4,5-dimethylthiazol-2-yl)-2,5-diphenyltetrazolium bromide assay kit (MTT, Sigma) according to operation instructions provided by the manufacturer. The concentration of drug causing 50% inhibition in absorbance compared with control cells (IC50) was calculated using the software of dose-effect analysis with microcomputers.

[2] = system: KB; test: MTT assay, antiproliferative activity against KB cells; format: cell-based; settings: Homo sapiens, 72 h, mean of at least two determinations
Source text: as §1, §2

[3] = target: T1, recombinant human PI3Kα (Homo sapiens, UniProt P42336); test: Competitive fluorescence polarization (FP) assay, inhibition of PI3Kα; format: biochemical; settings: for Binding efficiency index (BEI): BEI = pIC50 (M)/MW (kDa), PI3Kα
T1 construct: purchased Echelon Biosciences (Salt Lake City, UT, USA) E-2000
T1 sequence (P42336 whole entry): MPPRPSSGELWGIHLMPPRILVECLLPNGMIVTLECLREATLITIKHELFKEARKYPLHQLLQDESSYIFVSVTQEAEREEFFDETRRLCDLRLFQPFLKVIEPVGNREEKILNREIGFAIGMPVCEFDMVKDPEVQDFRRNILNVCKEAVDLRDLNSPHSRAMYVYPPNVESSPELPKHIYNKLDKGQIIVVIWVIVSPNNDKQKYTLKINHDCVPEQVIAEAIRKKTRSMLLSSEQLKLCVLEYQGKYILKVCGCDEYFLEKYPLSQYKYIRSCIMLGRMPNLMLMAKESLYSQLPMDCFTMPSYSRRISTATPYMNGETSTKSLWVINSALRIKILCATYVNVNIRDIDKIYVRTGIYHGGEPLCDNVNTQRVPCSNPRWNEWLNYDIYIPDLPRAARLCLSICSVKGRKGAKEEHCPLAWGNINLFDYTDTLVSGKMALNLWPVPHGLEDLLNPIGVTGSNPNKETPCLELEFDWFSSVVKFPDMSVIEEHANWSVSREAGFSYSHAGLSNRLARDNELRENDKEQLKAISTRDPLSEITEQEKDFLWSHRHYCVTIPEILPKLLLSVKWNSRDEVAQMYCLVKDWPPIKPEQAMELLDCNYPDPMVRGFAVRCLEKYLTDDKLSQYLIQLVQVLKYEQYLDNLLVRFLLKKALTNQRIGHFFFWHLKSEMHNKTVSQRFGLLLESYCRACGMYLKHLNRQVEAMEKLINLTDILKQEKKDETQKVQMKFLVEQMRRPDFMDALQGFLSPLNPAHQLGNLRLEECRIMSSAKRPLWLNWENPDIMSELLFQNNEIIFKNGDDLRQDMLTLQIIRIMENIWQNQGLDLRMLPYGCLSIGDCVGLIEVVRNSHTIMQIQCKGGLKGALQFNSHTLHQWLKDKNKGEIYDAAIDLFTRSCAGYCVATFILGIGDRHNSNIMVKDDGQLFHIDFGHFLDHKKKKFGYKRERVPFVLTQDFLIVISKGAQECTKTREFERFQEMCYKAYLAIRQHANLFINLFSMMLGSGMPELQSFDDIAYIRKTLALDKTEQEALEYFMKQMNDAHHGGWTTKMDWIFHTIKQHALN
T1 sequence (P27986 whole entry partner): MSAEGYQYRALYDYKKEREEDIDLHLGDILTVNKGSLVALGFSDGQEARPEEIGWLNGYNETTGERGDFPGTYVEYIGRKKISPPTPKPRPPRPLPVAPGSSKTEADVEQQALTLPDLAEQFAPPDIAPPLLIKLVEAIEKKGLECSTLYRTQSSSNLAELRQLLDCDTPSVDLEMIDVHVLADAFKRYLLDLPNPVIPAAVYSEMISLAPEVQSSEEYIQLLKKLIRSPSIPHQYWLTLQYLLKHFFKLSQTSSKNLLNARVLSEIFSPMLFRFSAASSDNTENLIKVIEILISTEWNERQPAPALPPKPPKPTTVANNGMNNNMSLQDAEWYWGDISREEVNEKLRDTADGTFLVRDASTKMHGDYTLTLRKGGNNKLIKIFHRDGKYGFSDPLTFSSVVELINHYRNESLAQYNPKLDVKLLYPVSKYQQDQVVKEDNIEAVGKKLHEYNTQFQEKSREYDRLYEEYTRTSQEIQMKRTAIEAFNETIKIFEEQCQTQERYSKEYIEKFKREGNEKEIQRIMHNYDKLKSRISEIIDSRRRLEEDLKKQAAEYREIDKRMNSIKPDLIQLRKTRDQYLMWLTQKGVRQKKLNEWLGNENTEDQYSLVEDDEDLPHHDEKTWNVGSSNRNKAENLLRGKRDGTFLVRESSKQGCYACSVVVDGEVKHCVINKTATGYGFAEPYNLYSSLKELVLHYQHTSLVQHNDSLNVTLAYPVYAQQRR
Protocol: Selected compounds were then tested for their enzymatic inhibitory activity against PI3Kα using a competitive fluorescence polarization (FP) assay to determine the molecular target of synthesized compounds [21].
The PI3Kα inhibitory test was determined using a competitive fluorescence polarization kinase activity assay. PI3K fluorescence polarization assay kit (catalog No. K-1100) and recombinant human PI3Kα (catalog No. E-2000) were purchased from Echelon Biosciences (Salt Lake City, UT, USA). PI3K reactions were performed in 5 mM HEPES, Ph 7, 2.5 mM MgCl2, 10 mM DTT and 50 µM ATP, using diC8-phosphatidylinositol-4, 5-bisphosphate (PIP2) as the substrate, and the final reaction volumes were 10 µL. For evaluation of the PI3Kα inhibitory activity of target compounds, 50 ng enzyme and 10 µM substate were used per 10 µL reaction volume with the concentrations of inhibitors ranging from 3.2 nM to 10 µM. After incubating for 3 h at room temperature, reactions were quenched by adding chelators. A mixture of phosphoinositide binding protein was added and mixed, followed by the addition of a fluorophore-labeled phosphoinositide tracer. Samples were then mixed in 384-well black Corning nonbinding plates (Corning, NY, USA) and incubated in a dark environment for 1 h to equilibrate. Finally, polarization values were measure using red fluorophores with appropriate filters to determine the extent of enzyme activity in the reaction.

[4] = system: HL60; test: MTT assay, antiproliferative activity against HL60 cells; format: cell-based; settings: Homo sapiens, HL-60, 72 h, mean of at least two determinations
Source text: as §1, §2

[5] = system: HCT116; test: MTT assay, antiproliferative activity against HCT116 cells; format: cell-based; settings: Homo sapiens, HCT-116, 72 h, mean of at least two determinations
Source text: as §1, §2

[6] = system: PC3; test: MTT assay, antiproliferative activity against PC3 cells; format: cell-based; settings: Homo sapiens, PC-3, 72 h, mean of at least two determinations
Source text: as §1, §2

[7] = system: PC3 cells; test: Cell cycle arrest in PC3 cells by flow cytometry; format: cell-based, human; settings: 24 h; for cell cycle arrest: 2 and 4 µM
Protocol: Moreover, flow cytometric analysis was performed to determine whether target compounds could induce cell cycle arrest in PC3 cells. GDC0941 was used as the positive control. PC3 cells were treated with compound 41 and GDC0941 in two different concentrations (2 and 4 µM) for 24 h, the results are presented as Figure 6.
Figure 6 Cell cycle arrest test of compound 41 and GDC0941 in PC3 cells. Vertical axes stand for the counts of relative number of PC3 cells; horizontal axes stand for the relative fluorescence light intensity measured as pulse-area (FL2-A). TEXT PRINTED IN THE PICTURE: Compound 41: G1: 53.77 % (2μM); G2: 16.76 % (2μM); S: 29.48 % (2μM); G1: 54.38 % (4μM); G2: 15.87 % (4μM); S: 29.75 % (4μM) | GDC0941: G1: 63.66 % (2μM); G2: 21.86 % (2μM); S: 14.48 % (2μM); G1: 71.43 % (4μM); G2: 19.92 % (4μM); S: 8.65 % (4μM)
(§3) For flow cytometry analysis, PC3 cells were treated with DMSO, compound 41 and GDC0941 for 24 h. Cells were washed twice with PBS and fixed in 75% ethanol at −20°C. The cell pellet was resuspended in 100 µL of PBS containing […] RNase (Amerson, Solon, OH, USA), then incubated at 37°C for 0.5 h. After incubation, the cells were stained with 20 mL/L propidium iodide (PI, Sigma, St. Louis, MO, USA) at 4°C for 15 min. The fluorescence of cell was measured with FACSCalibur flow cytometer (Becton-Dickinson, Lincoln Park, NJ, USA).

[8] = system: PC3 cells; test: Apoptosis assay in PC3 cells by flow cytometry (PI); format: cell-based, human; settings: 24 h, control 1.71%
Protocol: Piperazinylquinoxaline derivative 41 was further tested for its ability to induce apoptosis in PC3 cells. […] (Fig. 5). With an apoptotic percent of 1.71% of the control, the percent of apoptotic PC3 cells induced by compound 41 and GDC0941 in 5 µM after treatment of 24 h were 4.48% and 3.12%, respectively.
Figure 5 Apoptosis induction of compound 41 and GDC0941 in PC3 cells. After treatment with 41 and GDC0941 (5 or 10 µM) for 24 h, PC3 cells were harvested and detected of apoptosis by flow cytometry using PI apoptosis detection kit. Vertical axes stand for the counts of relative number of PC3 cells; horizontal axes stand for the relative fluorescence light intensity measured as pulse-area (FL2-A). TEXT PRINTED IN THE PICTURE: Compound 41: Apo:4.48% (5μM); Apo:32.83% (10μM) | GDC0941: Apo:3.12% (5μM); Apo:5.65% (10μM)
as §3

[9] = FP assay, 50 µM ATP, mean of at least two determinations

Cc1ccc(S(=O)(=O)c2nc3ccccc3nc2N2CCNC(C)C2)cc1 (stereo not drawn) [Compound 25, 2-(3-Methylpiperazin-1-yl)-3-(4-methylphenylsulfonyl)quinoxaline] showed an IC50 [1] of 1.6 µM, an IC50 [2] of 9.18 µM and a melting point of 136 to 138 °C. The “Binding efficiency index (BEI)” value [3] was 16.2, the IC50 [3, 9] was 0.65 µM and the IC50 [4] was 0.09 µM. The IC50 [5] was 1.17 µM and the IC50 [6] was 2.03 µM.
In the case of COc1ccc(S(=O)(=O)c2nc3ccccc3nc2N2CCNC(C)C2)cc1 (stereo not drawn) [Compound 26, 2-(3-Methylpiperazin-1-yl)-3-(4-methoxyphenylsulfonyl)quinoxaline], the IC50 [1] is reported as 1.65 µM, the IC50 [2] is reported as 8.53 µM and the melting point is reported as 130 to 133 °C. The “Binding efficiency index (BEI)” value [3] was 16.6, the IC50 [3, 9] was 0.24 µM and the IC50 ([3]; as used for BEI, Table 5) was 0.24 µM. For the same compound, the IC50 [4] was 0.16 µM, the IC50 [5] was 0.54 µM and the IC50 [6] was 0.93 µM.
CC1CN(c2nc3ccccc3nc2S(=O)(=O)c2ccc(Br)cc2)CCN1 (stereo not drawn) [Compound 27, 2-(3-Methylpiperazin-1-yl)-3-(4-bromophenylsulfonyl)quinoxaline] showed an IC50 [1] of 0.57 µM, an IC50 [2] of 9.46 µM and a melting point of 158 to 160 °C. For the same compound, the “Binding efficiency index (BEI)” value [3] was 16.1, the IC50 [3, 9] was 0.061 µM and the IC50 ([3]; as used for BEI, Table 5) was 0.061 µM. For the same compound, the IC50 [4] was 0.12 µM, the IC50 [5] was 0.32 µM and the IC50 [6] was 0.6 µM.
In the case of O=C(c1ccccc1)N1CCN(c2nc3ccccc3nc2S(=O)(=O)c2ccccc2)CC1 [Compound 29, 2-(4-Benzoylpiperazin-1-yl)-3-(phenylsulfonyl)quinoxaline], the IC50 [1] is reported as 5.2 µM, the IC50 [2] is reported as 1.22 µM and the melting point is reported as 224 to 226 °C. For the same compound, the IC50 [3, 9] was over 10 µM, the IC50 [4] was 7.2 µM and the IC50 [5] was 42.4 µM. It also gave an IC50 [6] of 4.99 µM.
With O=C(c1ccc(Cl)cc1)N1CCN(c2nc3ccccc3nc2S(=O)(=O)c2ccccc2)CC1 [Compound 34, 2-(4-(4-Chlorobenzoyl)piperazin-1-yl)-3-(phenylsulfonyl)quinoxaline] the IC50 [1] was 3.86 µM, the IC50 [2] was 0.93 µM and the melting point was 217 to 219 °C. For the same compound, the “Binding efficiency index (BEI)” value [3] was 11.3, the IC50 [3, 9] was 2.75 µM and the IC50 [4] was 5.84 µM. It also gave an IC50 [5] of 25.4 µM and an IC50 [6] of 2.74 µM.
For COc1ccc(S(=O)(=O)c2nc3ccccc3nc2N2CCN(S(C)(=O)=O)CC2)cc1 [Compound 41, 2-(4-(Methylsulfonyl)piperazin-1-yl)-3-(4-methoxyphenylfsulfonyl)quinoxaline], the “percent of cells in G1” value ([7]; 2 µM) was 53.77%, the “percent of cells in G2” value ([7]; 2 µM) was 16.76% and the “percent of cells in S” value ([7]; 2 µM) was 29.48%. The “percent of cells in G1” value ([7]; 4 µM) was 54.38%, the “percent of cells in G2” value ([7]; 4 µM) was 15.87% and the “percent of cells in S” value ([7]; 4 µM) was 29.75%. For the same compound, the cell cycle arrest [7] was “showed similar trend while the percent of cell in G1 phase was smaller”, the IC50 [1] was 1.32 µM and the melting point was 177 to 179 °C. For the same compound, the “Binding efficiency index (BEI)” value [3] was 16.5, the IC50 [3, 9] was 0.024 µM and the IC50 [5] was 0.55 µM. For the same compound, the “percent of apoptotic PC3 cells” value ([8]; 5 µM) was 4.48%, the “percent of apoptotic PC3 cells” value ([8]; 10 µM) was 32.83% and the IC50 [6] was 2.21 µM.
Cc1ccc(S(=O)(=O)N2CCN(c3nc4ccccc4nc3S(=O)(=O)c3ccccc3)CC2)cc1 [Compound 44, 2-(4-(4-Methylphenylsulfonyl)piperazin-1-yl)-3-(phenylsulfonyl)quinoxaline] showed an IC50 [1] of 24.3 µM, an IC50 [2] of 3.08 µM and a melting point of 161 to 163 °C. For the same compound, the IC50 [3, 9] was over 10 µM, the IC50 [4] was 6.4 µM and the IC50 [5] was 7.49 µM. The IC50 [6] was 2.19 µM.
In the case of CS(=O)(=O)N1CCN(Cc2cc3nc(-c4cccc5[nH]ncc45)nc(N4CCOCC4)c3s2)CC1 [GDC0941, 2-(1H-Indazol-4-yl)-6-(4-methanesulfonyl-piperazin-1-ylmethyl)-4-morpholin-4-yl-thieno[3,2-d]pyrimidine, reference compound], the “percent of cells in G1” value ([7]; 2 µM) is reported as 63.66%, the “percent of cells in G2” value ([7]; 2 µM) is reported as 21.86% and the “percent of cells in S” value ([7]; 2 µM) is reported as 14.48%. The “percent of cells in G1” value ([7]; 4 µM) was 71.43%, the “percent of cells in G2” value ([7]; 4 µM) was 19.92% and the “percent of cells in S” value ([7]; 4 µM) was 8.65%. The cell cycle arrest [7] was “induced cell cycle arrest in G1 phase”, the “percent of apoptotic PC3 cells” value ([8]; 5 µM) was 3.12% and the “percent of apoptotic PC3 cells” value ([8]; 10 µM) was 5.65%.
